Measured values from ChEMBL document CHEMBL1201862, “PubChem BioAssay data set” (2004).
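Five compound concentrations were applied to cells in 96-well plates for 48 hours; endpoints were derived by simple linear interpolation of the resulting dose-response curve. GI50 is the concentration that inhibits growth by half.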 Active and inactive are the calls of the source. Cut-off read from the data, not from the text of the source: active = GI50 up to about 1.1 µM and inactive = higher.

Experiments:
Assay in all cases: inhibition of tumour cell growth, NCI panel, 48 h
[1] = tested on: MCF7
[2] = tested on: CAKI-1
[3] = tested on: RXF 393
[4] = tested on: U-251
[5] = tested on: ACHN
[6] = tested on: OVCAR-5
[7] = tested on: SW-620
[8] = tested on: OVCAR-4
[9] = tested on: A498
[10] = tested on: SF-539
[11] = tested on: CCRF-CEM
[12] = tested on: OVCAR-8
[13] = tested on: 786-0
[14] = tested on: Malme-3M
[15] = tested on: SN12C
[16] = tested on: DU-145
[17] = tested on: HCC 2998
[18] = tested on: A549
[19] = tested on: SK-MEL-28
[20] = tested on: SR

Measured: GI50

Cc1[nH]nc(C(=O)N/N=C/c2cccs2)c1/N=N\N(C)C
inactive: [1] 3.94 µM | [2] 5.78 µM | [3] 14.6 µM | [4] 10.3 µM | [5] 2.96 µM | [6] 29.7 µM | [7] 15.3 µM | [8] 10.5 µM | [9] 23.4 µM | [10] 13.3 µM | [11] 2.52 µM | [12] 11.6 µM | [13] 13.6 µM | [14] 21.4 µM | [15] 22 µM | [16] 9.53 µM | [17] 5.06 µM | [18] 10.5 µM

NC1=NN(c2ccccc2)C(=O)C1C(=O)C(=O)Nc1ccc(Cl)c(Cl)c1 (stereo unspecified)
inactive: [2] 55.3 µM | [3] > 100 µM | [4] > 100 µM | [5] 84.5 µM | [6] > 100 µM | [7] > 100 µM | [8] > 100 µM | [9] > 100 µM | [10] > 100 µM | [11] 96.4 µM | [12] > 100 µM | [19] > 100 µM | [20] > 100 µM | [13] > 100 µM | [14] > 100 µM | [15] > 100 µM | [17] > 100 µM | [18] > 100 µM

O=C1c2cc([N+](=O)[O-])cnc2S(=O)(=O)N1c1ccc(Oc2ccccc2)cc1
inactive: [1] > 100 µM | [3] 34.2 µM | [4] > 100 µM | [5] > 100 µM | [6] > 100 µM | [7] > 100 µM | [8] > 100 µM | [11] 39 µM | [12] > 100 µM | [19] > 100 µM | [20] 57 µM | [13] > 100 µM | [14] > 100 µM | [15] > 100 µM | [16] > 100 µM | [17] > 100 µM | [18] > 100 µM

Cc1[nH]c2ncn3nc(C(Cl)(Cl)Cl)nc3c2c1Cc1ccccc1
inactive: [1] > 100 µM | [2] > 100 µM | [3] > 100 µM | [4] > 100 µM | [5] > 100 µM | [6] > 100 µM | [7] > 100 µM | [8] > 100 µM | [9] > 100 µM | [10] > 100 µM | [11] > 100 µM | [12] > 100 µM | [19] > 100 µM | [13] > 100 µM | [14] > 100 µM | [15] > 100 µM | [16] > 100 µM | [17] > 100 µM | [18] > 100 µM

CCC1=CC2Cc3nc4cc(Cl)ccc4c(N)c3C(C1)C2 (stereo unspecified)
inactive: [1] 3.25 µM | [2] 2.26 µM | [3] 2.65 µM | [4] 8.59 µM | [5] 7.8 µM | [6] 5.62 µM | [7] 8.91 µM | [8] 3.59 µM | [9] 4.86 µM | [10] 9.27 µM | [11] 3.35 µM | [12] 12.8 µM | [19] 2.86 µM | [13] 5.04 µM | [14] 4.55 µM | [15] 12.5 µM | [16] 11.2 µM | [17] 1.51 µM | [18] 7.59 µM

COc1ccc(C(=O)C#Cc2cn(C3CC(O)C(CO)O3)c(=O)[nH]c2=O)cc1 (stereo unspecified)
inactive: [1] 35.5 µM | [2] > 100 µM | [3] 52.2 µM | [4] > 100 µM | [5] > 100 µM | [7] 43.1 µM | [8] 48.6 µM | [10] 19.3 µM | [11] > 10 µM | [12] > 100 µM | [19] 20.4 µM | [13] 49.7 µM | [14] 10.4 µM | [15] 28.7 µM | [16] > 100 µM | [17] > 100 µM | [18] > 100 µM

COc1ccc2oc(=N)c(C(N)=O)cc2c1
inactive: [2] 50.6 µM | [3] > 100 µM | [4] > 100 µM | [5] 30.3 µM | [6] > 100 µM | [7] 94.8 µM | [8] 48.1 µM | [9] 44.2 µM | [10] 66.5 µM | [11] 33.2 µM | [12] > 100 µM | [19] 79.4 µM | [20] 38.5 µM | [13] 53.5 µM | [15] 74.5 µM | [16] 71.9 µM | [17] 32.7 µM | [18] > 100 µM

COc1ccc(C(=O)N(C(=S)OCCOc2ccccc2)c2ccccc2)cc1
inactive: [1] 42 µM | [2] 47 µM | [3] 26.5 µM | [4] 46.1 µM | [5] 44.9 µM | [6] 88.3 µM | [7] 50 µM | [8] 24.5 µM | [9] 18.4 µM | [10] 40.3 µM | [11] 14.9 µM | [12] 52.2 µM | [19] > 100 µM | [13] 47.9 µM | [14] 28.4 µM | [15] 43.8 µM | [16] 37.1 µM | [17] 34.4 µM | [18] 31.1 µM

C(=C\c1ccccc1)/C=N/c1ccc2c(c1)Cc1ccccc1-2
inactive: [2] > 100 µM | [3] > 100 µM | [4] 18.7 µM | [5] > 100 µM | [6] > 100 µM | [7] 69 µM | [8] 63.8 µM | [9] > 100 µM | [11] 14.7 µM | [12] 57.9 µM | [19] 97.3 µM | [20] 24 µM | [13] 54.2 µM | [14] > 100 µM | [15] 41.1 µM | [16] 31.3 µM | [18] > 100 µM

O=c1n(-c2ccccc2)c(=O)n2c(-c3ccccc3)c(-c3ccccc3)n12
inactive: [1] > 100 µM | [2] > 100 µM | [3] 15.9 µM | [4] > 100 µM | [5] > 100 µM | [6] > 100 µM | [7] > 100 µM | [8] > 100 µM | [9] > 100 µM | [10] > 100 µM | [11] 31.4 µM | [12] > 100 µM | [19] > 100 µM | [20] 27 µM | [13] 80.2 µM | [14] > 100 µM | [15] > 100 µM | [17] 77.8 µM | [18] > 100 µM

NS(=O)(=O)c1nnc(NC(=O)N(c2ccccc2)c2ccccc2)s1
inactive: [1] 38.1 µM | [2] 28.6 µM | [3] 18.4 µM | [4] 43.7 µM | [6] 24.8 µM | [7] 29.9 µM | [8] 27.9 µM | [10] 17.6 µM | [11] 20.1 µM | [12] 19.9 µM | [19] 39 µM | [13] 23 µM | [14] 21.2 µM | [15] 15.8 µM | [16] 14.2 µM | [18] 26.3 µM

NCCCCNCCCNC(=O)c1csc(-c2nc(CCN)sc2Cl)n1
inactive: [1] > 100 µM | [3] > 100 µM | [4] > 100 µM | [5] > 100 µM | [6] > 100 µM | [7] > 100 µM | [9] > 100 µM | [10] > 100 µM | [11] > 100 µM | [12] > 100 µM | [19] > 100 µM | [13] > 100 µM | [14] > 100 µM | [15] > 100 µM | [16] > 100 µM | [17] 70.8 µM | [18] > 100 µM

O=c1[nH]nc(Nc2ccccc2)c2nnn(C3CCCCC3)c12
inactive: [1] > 100 µM | [2] > 100 µM | [4] > 100 µM | [5] > 100 µM | [6] > 100 µM | [8] > 100 µM | [11] > 100 µM | [12] > 100 µM | [19] > 100 µM | [20] > 100 µM | [13] > 100 µM | [14] > 100 µM | [15] > 100 µM | [16] > 100 µM | [17] > 100 µM | [18] > 100 µM

COC(=O)/C(=N\O)C(C(=O)C=C(C)C)C(=O)C(=O)Nc1ccccc1C (stereo unspecified)
inactive: [2] > 100 µM | [3] > 100 µM | [4] > 100 µM | [5] > 100 µM | [6] > 100 µM | [7] > 100 µM | [8] > 100 µM | [9] > 100 µM | [10] > 100 µM | [11] > 100 µM | [12] > 100 µM | [19] > 100 µM | [20] > 100 µM | [13] > 100 µM | [14] > 100 µM | [15] > 100 µM | [17] > 100 µM | [18] > 100 µM

S=C1CC(c2ccccc2)Sc2ccccc2N1 (stereo unspecified)
inactive: [1] 44.4 µM | [2] 55 µM | [3] 28.4 µM | [4] 44.2 µM | [5] 69 µM | [6] 76.6 µM | [8] 49.2 µM | [11] > 100 µM | [12] > 100 µM | [19] 51.4 µM | [20] > 100 µM | [13] > 10 µM | [14] 67.1 µM | [15] 97.7 µM | [16] 87.1 µM | [18] > 10 µM

CS(=O)(=O)OCCN1CCN(C(=O)c2ccc(Cl)c3c(Nc4ccc(S(=O)(=O)N=C(N)N)cc4)c4ccccc4nc23)CC1
inactive: [2] > 100 µM | [3] > 100 µM | [4] > 100 µM | [5] > 100 µM | [6] > 100 µM | [8] > 100 µM | [9] > 100 µM | [10] > 100 µM | [11] > 100 µM | [12] > 100 µM | [19] > 100 µM | [20] > 100 µM | [13] > 100 µM | [14] > 100 µM | [15] > 100 µM | [17] > 100 µM | [18] > 100 µM
